From patent US20240407413A1, “Concentrates Compromising Stevia Blends and Uses” (The Coca-Cola Company, priority 2018, published 2024)

Columns and labels:
[1] = Appearance of 0.3 wt % syrup concentrates diluted from super concentrates; format: physicochemical; conditions: 0.3 wt % (5.5+1 syrup concentration) in water, mixed at room temperature for 90 hours
Description: The final syrup concentrations are provided below:
The 2 wt % super concentrates were then diluted to a 5.5+1 syrup concentration (0.3 wt %) with water and mixed at room temperature for 90 hours.

[2] = Solubility in mock syrup system (0.3%); format: physicochemical

SMILES	Observations [1]	Solubility in Syrup System (0.3%) ([2]; 500 ppm in citric buffer)	Solubility in Syrup System (0.3%) ([2]; 512 ppm in citric buffer)
C=C1C[C@@]23CC[C@H]4[C@@](C)(CCC[C@@]4(C)C(=O)O[C@@H]4O[C@H](CO)[C@@H](O)[C@H](O[C@@H]5O[C@H](CO)[C@@H](O)[C@H](O)[C@H]5O)[C@H]4O[C@@H]4O[C@@H](C)[C@H](O)[C@@H](O)[C@H]4O)[C@@H]2CC[C@]1(O[C@@H]1O[C@H](CO)[C@@H](O)[C@H](O[C@@H]2O[C@H](CO)[C@@H](O)[C@H](O)[C@H]2O)[C@H]1O[C@@H]1O[C@H](CO)[C@@H](O)[C@H](O)[C@H]1O)C3 [Reb N]	cloudy		
C=C1C[C@@]23CCC4[C@](C)(C(=O)OC5OC(CO)C(O)C(OC6OC(CO)C(O)C(O)C6O)C5OC5OC(CO)C(O)C(O)C5O)CCC[C@@]4(C)[C@@H]2CCC1(OC1OC(CO)C(O)C(OC2OC(CO)C(O)C(O)C2O)C1OC1OC(CO)C(O)C(O)C1O)C3 (stereo partly drawn) [Reb-M, 13-[(2-O-β-D-glucopyranosyl-3-O-β-D-glucopyranosyl-β-D-glucopyranosyl)oxy] ent kaur-16-en-19-oic acid-[(2-O-β-D-glucopyranosyl-3-O-β-D-glucopyranosyl-β-D-glucopyranosyl) ester]]		No	No
